# Laboratory results as given in paper PMC8318587, “Structure-guided microbial targeting of antistaphylococcal prodrugs” (eLife, 2021).
# Entries after “also recorded” stand apart in the source; their conditions may differ.
# Experiments:
# SaFrmB [1] = molecular target: T1, SaFrmB (Staphylococcus aureus, UniProt A0A0H3KFB7); assay: Glyoxalase II activity assay (DTNB coupled); format: biochemical; conditions: 1 mM substrate, 37°C, 412 nm
# T1 construct: made in house; host or cells: E. coli BL21 (DE3)
# T1 sequence (A0A0H3KFB7 1-253): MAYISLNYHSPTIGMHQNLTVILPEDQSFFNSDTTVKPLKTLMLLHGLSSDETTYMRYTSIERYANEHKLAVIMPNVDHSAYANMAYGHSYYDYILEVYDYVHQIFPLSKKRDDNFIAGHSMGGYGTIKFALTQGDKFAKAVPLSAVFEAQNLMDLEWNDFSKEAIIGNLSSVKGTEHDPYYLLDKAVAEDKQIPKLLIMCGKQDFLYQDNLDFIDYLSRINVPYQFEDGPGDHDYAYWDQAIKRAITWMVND
# Protocol: (§1) Glyoxalase II activity was assessed as previously with minor changes ([Mikati et al., 2020]; [Stamp et al., 2010]). Briefly, reactions were mixed to form a final concentration of 25 mM Tris pH 7.5, 250 mM NaCl, 1 mM MnCl2, 10% glycerol, 200 µM 5,5’-dithiobis(2-nitrobenzoic acid) (DTNB, Sigma D8130), 1 mM D-lactoylglutathione (Sigma L7140), and 0.15–0.63 µg protein (130–550 nM GloB, 100–430 nM FrmB). Protein concentrations were varied to ensure the reaction was linear across protein concentrations. Reactions without D-lactoylglutathione were pre-incubated at 37°C for 10 min prior to assay initiation with the addition of substrate. Release of glutathione from D-lactoylglutathione was quantified spectrophotometrically at 37°C and 412 nm through the conversion of DTNB to TNB. Experiments were performed in triplicate with technical duplicates.
# SaGloB [2] = molecular target: T2, SaGloB (Staphylococcus aureus, UniProt P0DY75); assay: Glyoxalase II activity assay (DTNB coupled); format: biochemical; conditions: 1 mM substrate, 37°C, 412 nm
# T2 sequence (P0DY75 1-207): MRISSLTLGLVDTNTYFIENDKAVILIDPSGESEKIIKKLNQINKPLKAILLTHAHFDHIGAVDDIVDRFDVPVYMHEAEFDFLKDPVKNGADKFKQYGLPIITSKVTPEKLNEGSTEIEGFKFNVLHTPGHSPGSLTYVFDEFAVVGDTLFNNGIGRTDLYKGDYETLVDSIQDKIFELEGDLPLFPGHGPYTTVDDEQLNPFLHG
# Protocol: as §1
# FrmB = molecular target: T3, FrmB (Staphylococcus aureus, UniProt A0A0H3KFB7); assay: 4-Nitrophenyl ester substrate activity assay; format: biochemical; conditions: 1 µM protein, 1 mM substrate, 37°C, A405
# T3 construct: made in house; host or cells: E. coli BL21 (DE3)
# Protocol: (§2) 4-Nitrophenyl substrate-specific activity was determined in 50 µL reactions containing 25 mM Tris pH 7.5, 250 mM NaCl, 1 mM MnCl2, 10% glycerol, 1 µM protein, and 1 mM 4-nitrophenyl substrate. The tested substrates, 4-nitrophenyl acetate (Sigma, N8130), 4-nitrophenyl butyrate (Sigma N9876), and 4-nitrophenyl trimethylacetate (Sigma 135046), were resuspended in acetonitrile at 100 mM. Reactions without 4-nitrophenyl substrate were preincubated at 37°C for 10 min prior to assay initiation via substrate addition. Conversion of 4-nitrophenyl substrates to 4-nitrophenol was tracked photometrically at 37°C and A405nm. Experiments were performed in triplicate with technical duplicates.
# GloB = assay: 4-Nitrophenyl ester substrate activity assay; format: biochemical, Staphylococcus aureus; conditions: 1 µM protein, 1 mM substrate, 37°C, A405
# Protocol: as §2
# SaFrmB [3] = molecular target: T1, SaFrmB; assay: Esterase substrate specificity, fluorogenic SAR library kinetics; format: biochemical; conditions: for Km: SaFrmB 15 µg/mL, pH 7.5, 37°C; for In vitro activity (catalytic efficiency) for FrmB, in words: fluorogenic ester substrate
# Protocol: (§3) Kinetic measurements were performed according to [White et al., 2018] with minor variation. Lyophilized human and mouse sera were resuspended according to manufacturer instructions in highly pure, filtered water at protein concentrations of 85 mg/mL and 70 mg/mL, respectively. One milliliter of resuspended serum was added to a 24 mL mastermix for a final concentration of 31.25 mM Tris pH 7.5, 312.5 mM NaCl, 1.25 mM MgCl2, 12.5% glycerol, and 3.4 mg/mL or 2.8 mg/mL protein for human and mouse serum, respectively. For purified proteins, 5 mL of a 75 µg/mL stock was added to yield a 20 mL mastermix containing 31.25 mM Tris pH 7.5, 312.5 mM NaCl, 1.25 mM MgCl2, 12.5% glycerol, and 18.75 µg/mL protein. Mastermix was stored on ice when not in use. Twenty microliters of mastermix was transferred to a black, 96-well half area microplate (Corning, CLS3993) and prewarmed at 37°C. Fluorogenic substrates were prepared as 10 mM stock solutions in 100% DMSO and were diluted in water to a starting concentration of 500 µM. Enzyme catalyzed substrate hydrolysis was initiated by addition of 5 µL substrate dilution in technical duplicate to the prewarmed serum or protein solution. Final assay concentrations were as follows: 25 mM Tris pH 7.5, 250 mM NaCl, 1 mM MgCl2, 10% glycerol, and protein at a concentration of 2.72 mg/mL (human serum), 2.24 mg/mL (mouse serum), or 15 µg/mL (FrmB, GloB). The resulting change in fluorescence (λex = 485 nm, λem = 520 nm) was followed for 15 min at 37°C, collecting data every 30 s on a FLUOstar Omega microplate reader (BMG Labtech). Fluorescence measurements were converted to molar concentrations using a fluorescein standard curve (2.5 nmol–0.6 pmol). The initial rates of reaction were measured three independent times with two technical replicates per measurement and fit to a line using GraphPad Prism (GraphPad Software, La Jolla, CA). Initial rates of reaction were plotted versus the concentration of substrate and fit to a standard Michaelis–Menten equation (v = Vmax[S]/(Km + [S])), yielding estimates of Vmax and Km. Values for kcat and kcat/Km were calculated based on amount of enzyme added when purified enzymes were used.
# SaGloB [4] = molecular target: T2, SaGloB; assay: as above; format: biochemical; conditions: for Km / kcat/kuncat: SaGloB; for Km / In vitro activity (catalytic efficiency) for GloB, in words: fluorogenic ester substrate; for kcat/kuncat: normalised to uncatalysed hydrolysis rate
# Protocol: as §3
# S. aureus = assay: Microfluidics live cell imaging of pro-fluorescent substrate activation; format: cell-based, Staphylococcus aureus; conditions: 10 µM pro-fluorescent substrate, 37°C; for Intracellular activation (fluorescence) in live S. aureus, in words: 30 min of observation
# Protocol: Overnight cultures of S. aureus were grown in LB media, back diluted 1:500, and grown to early exponential phase (OD600 0.1–0.15), then washed in 1× PBS, and loaded on a bacterial CellASIC ONIX2 microfluidic plate. Prior to cell loading, the microfluidics plate lines were flushed with 1× PBS + 1% DMSO or 10 µM fluorescent pro-substrate in 1× PBS + 1% DMSO, and the plate was preincubated at 37°C. The microfluidics plate was loaded onto a Nikon Ti-E inverted microscope (Nikon Instruments, Inc) equipped with a 100× Plan N (N.A. = 1.45) Ph3 objective, SOLA SE Light Engine (Lumencor), heated control chamber (OKO Labs), and an ORCA-Flash4.0 sCMOS camera (Hammamatsu Photonics). The GFP filter set was purchased from Chroma Technology Corporation. Cells were loaded into the chamber until a single field of view contained 50–150 cells or cell clusters. […] Images were acquired every two min for a total of 44 min, and all experiments were undertaken at 37°C. The phase-contrast exposure time was kept constant at 200 ms, and the fluorescent channel exposure time was kept constant at 500 ms. For fluorescent images, the gain remained constant across all experiments. Image capture and analysis was performed using Nikon Elements Advanced Research software. Individual cells or clusters of cells were auto detected in the fluorescent channel using the intrinsic background fluorescence of each cell. […] Fluorescent intensity for each individual cell or cluster of cells was measured through the duration of the experiment and normalized to the area of the identified cell to yield the mean fluorescent intensity. Background cell autofluorescence was corrected by subtracting the average fluorescence across all identified objects from t = 0 through t = 10. Each experiment was performed in duplicate, with >50 individual cells or clusters analyzed in each experiment.
# mouse sera = assay: Esterase substrate specificity, fluorogenic SAR library kinetics in serum; format: in vitro ADME
# Protocol: as §3
# human sera = assay: as above; format: in vitro ADME
# Protocol: as §3
Compound,"Hydrolysis of 4-nitrophenyl ester by FrmB, in words (FrmB)","Hydrolysis of 4-nitrophenyl ester by GloB, in words (GloB)",Km (SaFrmB [3]),"In vitro activity (catalytic efficiency) for FrmB, in words (SaFrmB [3])","In vitro activity (catalytic efficiency) for GloB, in words (SaGloB [4])","Intracellular activation (fluorescence) in live S. aureus, in words (S. aureus)",Km (mouse sera),Km (human sera),also measured
CC(O)C(=O)SCC(NC(=O)CCC(N)C(=O)O)C(=O)NCC(=O)O (stereo not drawn) [S-lactoylglutathione],,,,,,,,,"Glyoxalase II activity (hydrolysis of substrate), in words (SaFrmB [1]): lacks appreciable glyoxalase activity; Glyoxalase II activity (hydrolysis of substrate), in words (SaGloB [2]): specific activity comparable to previously characterized microbial type II glyoxalases"
CC(C)(C)C(=O)Oc1ccc([N+](=O)[O-])cc1 [4-nitrophenyl trimethylacetate],no activity,no detectable activity,,,,,,,
CCCCCC(=O)OCOc1ccc2c(c1)Oc1cc(OCOC(=O)CCCCC)ccc1C21OC(=O)c2ccccc21 [3C],,,> 50 µM,moderate activity,moderate activity,slowly activates over the duration of the experiment,> 50 µM,> 50 µM,Km (SaGloB [4]): > 50 µM
CC(=O)Oc1ccc([N+](=O)[O-])cc1 [4-nitrophenyl acetate],modest activity,no detectable activity,,,,,,,
CCCC(=O)Oc1ccc([N+](=O)[O-])cc1 [4-nitrophenyl butyrate],modest activity,no detectable activity,,,,,,,
CCOCCC(=O)OCOc1ccc2c(c1)Oc1cc(OCOC(=O)CCOCC)ccc1C21OC(=O)c2ccccc21 [5O],,,> 50 µM,poor activity,moderate activity,never appreciably activates,> 50 µM,35.4 µM,kcat/kuncat (SaGloB [4]): 17.0 103; Vmax (human sera): 2.25 pmol*min-1*mg sera-1
COCC(=O)OCOc1ccc2c(c1)Oc1cc(OCOC(=O)COC)ccc1C21OC(=O)c2ccccc21 [1O],,,,high activity; also recorded: highest catalytic efficiency substrate,high activity; also recorded: highest catalytic efficiency substrate,,> 50 µM,64.1 µM,kcat/kuncat (SaFrmB [3]; SaFrmB): 1.34 103; kcat/kuncat (SaGloB [4]): 38.6 103; Time to intracellular fluorescence saturation (S. aureus; images every 2 min): < 2 min; Vmax (human sera): 68.6 pmol*min-1*mg sera-1
CCC(CC)C(=O)OCOc1ccc2c(c1)Oc1cc(OCOC(=O)C(CC)CC)ccc1C21OC(=O)c2ccccc21 [9C],,,> 50 µM,poor activity,poor activity,never appreciably activates,12.3 µM,> 50 µM,Km (SaGloB [4]): > 50 µM; Vmax (mouse sera): 3.18 pmol*min-1*mg sera-1
